Values quoted from earlier work, collected in patent US6585958B1, “Medicinal aerosol formulations” (Jago Research AG, priority 1998, dated 2003).

Settings: at 20° C.

Row | Structure (SMILES) | density | vapor pressure
1 | FCC(F)(F)F [HFA 134a, 1,1,1,2-tetrafluoroethane] | about 1.2 mg/ml | about 6 bar
2 | FC(C(F)(F)F)C(F)(F)F [HFA 227, 1,1,1,2,3,3,3-heptafluoropropane] | about 1.4 mg/ml | about 4.2 bar
